Experimental data published in patent publication US10207006B2, “Oligosaccharide conjugates and methods of use” (priority 2013, dated 2019).

Legend:
[1] = system: anti-M monoclonal antibody BM40; type: binding
[2] = system: anti-A and anti-M rabbit hyperimmunised and absorbed monospecific sera; type: binding

SMILES | inhibition of BM40 mAb binding by competing liquid phase antigen [1] | inhibition of anti-M vs anti-A monospecific sera binding [2]
C[C@H]1O[C@H](O[C@@H]2[C@@H](O[C@@H]3[C@H](O)[C@@H](O[C@H]4[C@@H](O)[C@H](NC=O)[C@@H](C)O[C@@H]4O)O[C@H](C)[C@H]3NC=O)O[C@H](C)[C@@H](NC=O)[C@@H]2O)[C@@H](O)[C@@H](O)[C@@H]1NC=O [TSM antigen, 4,6-dideoxy-4-formamido-α-D-mannopyranosyl-(1-2)-4,6-dideoxy-4-formamido-α-D-mannopyranosyl-(1-3)-4,6-dideoxy-4-formamido-α-D-mannopyranosyl-(1-2)-4,6-dideoxy-4-formamido-α-D-mannopyranose] | inhibit the binding to a greater extent than the equivalent concentration of Y. enterocolitica O:9 OPS and to a similar degree as the B. abortus S99 OPS | preferential inhibition of the anti-M sera
CO[C@H]1OC(C)[C@@H](NC=O)C(O)C1O[C@H]1OC(C)[C@@H](NC=O)C(O[C@H]2OC(C)[C@@H](NC=O)C(O)C2O[C@H](C=O)OC(C)[C@H](C=O)NC=O)C1O (stereo partly drawn) [oxiTSM] | maintained its antibody interaction | 
